Results: ChEMBL document CHEMBL4017441, “Mitigating the inhibition of human bile salt export pump by drugs: opportunities provided by physicochemical property modulation, in silico modeling, and structural modification” (Drug Metab Dispos, 2012)

target: T1, Bile salt export pump (Rattus norvegicus, UniProt O70127); experiment: Inhibition of BSEP in Sprague-Dawley rat canalicular membrane vesicles assessed as reduction in ATP-dependent [3H]-taurocholate uptake; type: ADME
T1 sequence (O70127 whole entry): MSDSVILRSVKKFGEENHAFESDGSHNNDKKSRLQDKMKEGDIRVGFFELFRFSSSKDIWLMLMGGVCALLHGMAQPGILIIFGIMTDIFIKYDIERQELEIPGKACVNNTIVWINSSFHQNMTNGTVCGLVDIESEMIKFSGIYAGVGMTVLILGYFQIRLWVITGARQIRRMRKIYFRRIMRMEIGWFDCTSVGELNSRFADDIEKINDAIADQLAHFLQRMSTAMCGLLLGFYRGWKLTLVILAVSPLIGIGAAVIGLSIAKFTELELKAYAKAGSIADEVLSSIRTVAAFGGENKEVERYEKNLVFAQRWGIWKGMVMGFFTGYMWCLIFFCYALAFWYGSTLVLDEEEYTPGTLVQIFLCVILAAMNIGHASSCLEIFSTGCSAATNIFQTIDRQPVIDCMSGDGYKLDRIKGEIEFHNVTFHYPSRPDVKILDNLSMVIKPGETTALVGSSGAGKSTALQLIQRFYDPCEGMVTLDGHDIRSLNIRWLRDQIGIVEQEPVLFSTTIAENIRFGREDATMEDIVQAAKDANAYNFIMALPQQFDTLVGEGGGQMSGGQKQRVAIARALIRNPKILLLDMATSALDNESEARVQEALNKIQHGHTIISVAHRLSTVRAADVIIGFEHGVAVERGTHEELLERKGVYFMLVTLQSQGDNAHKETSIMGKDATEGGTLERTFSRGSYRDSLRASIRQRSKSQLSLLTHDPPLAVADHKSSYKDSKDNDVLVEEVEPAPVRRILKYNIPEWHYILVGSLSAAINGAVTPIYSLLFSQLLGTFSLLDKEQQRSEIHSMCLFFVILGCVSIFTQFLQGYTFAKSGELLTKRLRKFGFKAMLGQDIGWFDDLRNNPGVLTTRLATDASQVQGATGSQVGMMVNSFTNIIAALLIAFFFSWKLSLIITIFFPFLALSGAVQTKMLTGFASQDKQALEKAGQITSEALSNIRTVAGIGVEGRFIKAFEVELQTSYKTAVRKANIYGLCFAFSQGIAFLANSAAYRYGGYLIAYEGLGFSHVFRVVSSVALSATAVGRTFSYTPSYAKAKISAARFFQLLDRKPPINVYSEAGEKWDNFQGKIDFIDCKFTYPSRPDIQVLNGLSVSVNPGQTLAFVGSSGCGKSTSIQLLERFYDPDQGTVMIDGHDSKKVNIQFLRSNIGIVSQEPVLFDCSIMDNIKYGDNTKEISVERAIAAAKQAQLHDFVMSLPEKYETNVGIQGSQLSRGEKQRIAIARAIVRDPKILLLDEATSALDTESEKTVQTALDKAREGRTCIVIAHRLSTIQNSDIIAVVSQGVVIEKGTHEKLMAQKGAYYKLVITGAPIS

Row | Compound | Ki [µM]
1 | COc1ccc(CCN(C)CCCC(C#N)(c2ccc(OC)c(OC)c2)C(C)C)cc1OC (stereo not drawn) | 92.5

target: Bile salt export pump (Homo sapiens, UniProt O95342); type: ADME

Row | IC50 [µM] | Compound
2 | > 1000 | CO/N=C1\CN(c2nc3c(cc2F)c(=O)c(C(=O)O)cn3C2CC2)CC1CN (stereo not drawn) [GEMIFLOXACIN]
3 | > 789 | CC(C)Cc1ccc(C(C)C(=O)O)cc1 (stereo not drawn) [IBUPROFEN]
4 | > 1000 | NNc1nncc2ccccc12 [HYDRALAZINE]
5 | 72.9 | OCCOCCN1CCN(C(c2ccccc2)c2ccc(Cl)cc2)CC1 (stereo not drawn) [HYDROXYZINE]
6 | 514 | CC(C)(C)C(=O)CN1CC2CN(CCCNc3ccc(C#N)cc3)CC(C1)O2

Row | Compound | IC50 [µM]
7 | CN1CC[C@@]2(C)c3cc(OC(=O)N4CCc5ccccc5C4)ccc3N(C)[C@@H]12 [QUILOSTIGMINE] | < 10
8 | CC1(C)CC(O)CC(C)(C)N1[O] [TEMPOL] | > 1000
